Earlier results as cited in patent US20050153948A1, “Methods and formulations for the treatment of medical conditions related to elevated dihydrotestosterone” (Zomanex, LLC, priority 2003, published 2005).

Experiments:
[1] = biological target: T1, Type I human reductase (Homo sapiens, UniProt P18405); details: Type I human 5α-reductase; read-out: K1 for Type I human reductase
T1 sequence (P18405 1-259): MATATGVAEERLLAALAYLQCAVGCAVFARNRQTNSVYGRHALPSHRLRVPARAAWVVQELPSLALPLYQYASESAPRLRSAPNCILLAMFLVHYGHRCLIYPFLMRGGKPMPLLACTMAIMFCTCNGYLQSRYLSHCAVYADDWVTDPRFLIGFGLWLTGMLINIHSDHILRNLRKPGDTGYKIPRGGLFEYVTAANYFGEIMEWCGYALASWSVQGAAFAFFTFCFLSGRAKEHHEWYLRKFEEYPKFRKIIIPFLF

[2] = biological target: T2, type II enzyme (5α-reductase) (Homo sapiens, UniProt P31213); details: type II 5α-reductase; read-out: K1 for type II enzyme
T2 sequence (P31213 1-254): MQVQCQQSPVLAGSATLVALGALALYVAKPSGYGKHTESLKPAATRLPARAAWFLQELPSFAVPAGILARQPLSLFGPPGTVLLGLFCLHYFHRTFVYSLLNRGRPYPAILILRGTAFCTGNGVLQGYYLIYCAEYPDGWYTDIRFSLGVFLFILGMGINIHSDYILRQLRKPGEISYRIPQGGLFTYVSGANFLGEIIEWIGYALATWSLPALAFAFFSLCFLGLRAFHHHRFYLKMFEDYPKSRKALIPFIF

[3] = system: prostate (benign prostatic hyperplasia); details: long-term use; reduced from about 10 percent
[4] = system: prostate cancer; details: 5 mg per day, seven-year trial; placebo group 24.4 percent
[5] = system: circulating serum DHT; details: two clinical trials
[6] = aqueous sterol/lecithin formulation, deuterated compounds, humans

| SMILES | Ki [1] | Ki [2] | need for surgical intervention for BPH [3] | cumulative incidence of cancer [4] | reduction in circulating serum DHT [5] | absorption relative to reduced derivatives sitostanol and campestanol [6] |
| --- | --- | --- | --- | --- | --- | --- |
| CC(C)(C)NC(=O)[C@H]1CC[C@H]2[C@@H]3CC[C@H]4NC(=O)C=C[C@]4(C)[C@H]3CC[C@]12C [finasteride] | 325 nM | 12 nM | 5% | 18.4% | 65% | – |
| CC(C)[C@H](C)CC[C@@H](C)[C@H]1CC[C@H]2[C@@H]3CC=C4C[C@@H](O)CC[C@]4(C)[C@H]3CC[C@]12C [campesterol] | – | – | – | – | – | about ten |
| CC[C@H](CC[C@@H](C)[C@H]1CC[C@H]2[C@@H]3CC=C4C[C@@H](O)CC[C@]4(C)[C@H]3CC[C@]12C)C(C)C [sitosterol] | – | – | – | – | – | about ten |
